Laboratory results from US11414385B2, “Compounds and methods for treating, detecting, and identifying compounds to treat apicomplexan parasitic diseases” (The University of Chicago, priority 2015, dated 2022).

Key:
[1] = tested on: T. gondii bradyzoites (EGS strain); test: EGS strain bradyzoite assay (cysts in HFF, dolichos/BAG1 staining); format: cell-based, Toxoplasma gondii; settings: 5 and 10 μM, in HFF
Protocol: (§1) HFF cells were grown in IMDM (1×, [+] glutamine, [+] 25 mM HEPES, [+] Phenol red, 10% FBS, [Gibco, Denmark]) on removable, sterile glass disks in the bottom of a clear, flat-bottomed 24-well plate. Cultures were infected with 3×10^4 parasites (EGS strain) per well, in 0.5 mL media and plate was returned to incubator at 37° C. overnight. The following day, the media was removed and clear IMDM and compounds were added to making various concentrations of the drug, to a total volume of 0.5 mL. Two wells were filled with media only, as a control. Plates were returned to the 37° C. incubator for 72 hours.
Efficacy was determined following fixation. Staining was used to determine the numbers of cysts in cultures without and with treatment with the test compounds. Cells were fixed using 4% paraformaldehyde and stained with Fluorescein-labeled Dolichos Biflorus Agglutinin, DAPI, and anti-BAG1, and anti-SAG1. Disks were removed and mounted onto glass slides and visualized using microscopy (Nikon Tl7). Slides were also scanned using a CRi Pannoramic Scan Whole Slide Scanner and viewed using Panoramic Viewer Software.
as §1, with “[gibco,” for “[Gibco,”, “2” for “Two”, “72 hours, and checked once every 24” for “72”, “hours. If tachyzoites were visible in the control before 72 hours, the cells were fixed and stained.” for “hours.”
Cells were fixed using 4% paraformaldehyde and stained with Fluorescein-labeled Dolichos Biflorus Agglutinin, DAPI, and BAG1. Disks were removed and mounted onto glass slides and visualized using microscopy (Nikon Tl7). Slides were scanned using a CRi Pannoramic Scan Whole Slide Scanner and viewed using Panoramic Viewer Software. Effects of the compounds were quantified by counting cysts in the controls and treated cells. Cysts and persisting organisms were counted in a representative field of view and then multiplied by a factor determined by the total area of the disk in order to estimate the number of cysts and organisms in each condition.
HFF cells were grown in IMDM (1×, [+] glutamine, [+] 25 mM HEPES, [+] Phenol red, 10% FBS, [gibco, Denmark]) on removable, sterile glass disks in the bottom of a clear, flat-bottomed 24-well plate. Cultures were infected with 3×10^4 parasites (EGS strain) per well, in 0.5 mL media and plate was returned to incubator at 37° C. overnight. The following day, the media was removed and clear IMDM and compounds were added to making various concentrations of the drug, to a total volume of 0.5 mL. 2 wells were filled with media only, as a control. Plates were returned to the 37° C. incubator for 72 hours, and checked once every 24 hours. If tachyzoites were visible in the control before 72 hours, the cells were fixed and stained. Cells were fixed using 4% paraformaldehyde and stained with Fluorescein-labeled Dolichos Biflorus Agglutinin, DAPI, and BAG1. Disks were removed and mounted onto glass slides and visualized using microscopy (Nikon Tl7). Slides were scanned using a CRi Pannoramic Scan Whole Slide Scanner and viewed using Panoramic Viewer Software. Effects of the compounds were quantified by counting cysts in the controls and treated cells. Cysts and persisting organisms were counted in a representative field of view and then multiplied by a factor determined by the total area of the disk in order to estimate the number of cysts and organisms in each condition. Data was collected using Gen5 software. IC50 was calculated by graphical analysis in Excel.

[2] = tested on: T. gondii tachyzoites (RH-YFP strain); test: In vitro challenge assay for Toxoplasma tachyzoites (RH-YFP in HFF, fluorescence); format: cell-based, Toxoplasma gondii
Protocol: Human foreskin fibroblasts (HFF) were cultured on a flat, clear-bottomed, black 96-well plate to 90% to 100% confluence. IMDM (1×, [+] glutamine, [+] 25 mM HEPES, [+] Phenol red, 10% FBS [gibco, Denmark]) was removed from each well and replaced with IMDM-C (1×, [+] glutamine, [+] 25 mM HEPES, [−] Phenol red, 10% FBS)[Gibco, Denmark]). Type I RH parasites expressing Yellow Fluorescent Protein (RH-YFP) were lysed from host cells by double passage through a 27-gauge needle. Parasites were counted and diluted to 32,000/mL in IMDM-C. Fibroblast cultures were infected with 3200 tachyzoites of the Type I RH-YFP strain and returned to incubator at 37° C. for 1-2 hours to allow for infection. Diluted solutions of the compounds were made using IMDM-C, and 20 μl were added to each designated well, with triplicates for each condition. Controls included pyrimethamine/sulfadiazine (current standard of treatment), DMSO only, fibroblast only, and an untreated YFP gradient with 2 fold dilutions of the parasite. Cells were incubated at 37° C. for 72 hours. The plates were read using a fluorimeter (Synergy H4 Hybrid Reader, BioTek) To ascertain the amount of yellow fluorescent protein, in relative fluorescence units (RFU), as a measure of parasite burden after treatment. Compounds were not considered effective or pursued for further analysis if there were no signs of inhibition at 1 μM. Data was collected using Gen5 software and analyzed with Excel.
Protocol adapted from Fomovska, et. al. (18,19). Human foreskin fibroblasts (HFF) were cultured on a flat, clear-bottomed, black 96-well plate to 90% to 100% confluence. IMDM (1×, [+] glutamine, [+] 25 mM HEPES, [+] Phenol red, 10% FBS [gibco, Denmark]) was removed from each well and replaced with IMDM-C (1×, [+] glutamine, [+] 25 mM HEPES, [−] Phenol red, 10% FBS)[gibco, Denmark]). Type I RH parasites expressing Yellow Fluorescent Protein (RH-YFP) were lysed from host cells by double passage through a 27-gauge needle. Parasites were counted and diluted to 32,000/mL in IMDM-C. Fibroblast cultures were infected with 3200 tachyzoites of the Type I RH strain expressing Yellow Fluorescent Protein (RH-YFP) and returned to incubator at 37° C. for 1-2 hours to allow for infection (15). Various concentrations of the compounds were made using IMDM-C, and 20 μl were added to each designated well, with triplicates for each condition. Controls included pyrimethamine/sulfadiazine (current standard of treatment), 0.1% DMSO only, fibroblast only, and an untreated YFP gradient with 2 fold dilutions of the parasite. Cells were incubated at 37° C. for 72 hours. Plates were read using a fluorimeter (Synergy H4 Hybrid Reader, BioTek) to ascertain the amount of yellow fluorescent protein, in relative fluorescence units (RFU), as a measure of parasite burden after treatment. Data was collected using Gen5 software. IC50 was calculated by graphical analysis in Excel.
An initial screening assay of 10 μM, 1 μM, 100 nM, and 10 nM was performed. Compounds were not considered effective or pursued for further analysis if there were no signs of inhibition of tachyzoites at 1 μM. If compounds did appear to be effective at 1 μM, another experiment was conducted to assess effect at 1 μM, 500 nM, 250 nM, 125 nM, 62.5 nM, and 31.25 nM.
Protocol adapted from Fomovska, et. al. (Fomovska A, Huang Q, El Bissati K, Mui E J, Witola W H, Cheng G, et al. Novel N-Benzoyl-2-Hydroxybenzamide Disrupts Unique Parasite Secretory Pathway. Antimicrob Agents Chemother [Internet]. 2012 May [cited 2015 Jul. 8]; 56(5):2666-82; Fomovska A, Wood R D, Mui E, Dubey J P, Ferreira L R, Hickman M R, et al. Salicylanilide inhibitors of Toxoplasma gondii. J Med Chem. 2012 Oct. 11; 55(19):8375-91.). Human foreskin fibroblasts (HFF) were cultured on a flat, clear-bottomed, black 96-well plate to 90% to 100% confluence. […]

[3] = molecular target: T1, Plasmodium falciparum bc1 complex cytochrome c reductase (Pfbc1) (Plasmodium falciparum, UniProt Q02768); test: Pfbc1 native assay (cytochrome c reduction by parasite extract); format: biochemical; settings: compound 1 μM; mean ± s.e.m. of 4 independent experiments
T1 construct: Parasite extract was then prepared by disruption with a sonicating probe; endogenous in cells; host or cells: P. falciparum 3D7 blood-stage parasites, saponin-freed and sonicated (crude parasite extract)
T1 sequence (Q02768 1-376): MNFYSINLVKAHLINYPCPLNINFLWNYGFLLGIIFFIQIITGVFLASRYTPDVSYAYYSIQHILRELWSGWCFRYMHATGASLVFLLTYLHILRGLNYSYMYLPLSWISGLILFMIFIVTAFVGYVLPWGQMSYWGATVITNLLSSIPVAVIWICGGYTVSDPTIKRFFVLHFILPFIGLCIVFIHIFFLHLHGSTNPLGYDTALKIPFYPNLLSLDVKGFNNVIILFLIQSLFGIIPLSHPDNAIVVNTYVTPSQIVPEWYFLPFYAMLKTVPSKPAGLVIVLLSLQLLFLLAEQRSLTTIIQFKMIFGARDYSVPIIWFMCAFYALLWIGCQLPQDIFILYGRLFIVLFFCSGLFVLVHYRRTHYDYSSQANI
Protocol: Plasmodium falciparum: 3D7 strain was obtained from the Liverpool School of Tropical Medicine. Protease cocktail inhibitor was obtained from Roche. Bradford protein assay dye reagent was obtained from Bio-Rad. All other reagents were obtained from Sigma-Aldrich. Decylubiquinol was produced as per Fisher et al. (Fisher et al. 2004)^21. In brief, 25 mg of decylubiquinone were dissolved in 400 μl of nitrogen-saturated hexane. An equal volume of aqueous 1 M sodium dithionite was added, and the mixture vortexed until colorless. The organic phase containing the decylubiquinol was collected, the solvent was evaporated under N2 and the decylubiquinol finally dissolved in 100 μl of 96% ethanol (acidified with 10 mM HCl). Concentrations of decylubiquinol was determined spectrophotometrically on a Cary 300 Bio UV/visible spectrophotometer (Varian, UK) from absolute spectra, using ε288-320=8.1 mM-1·cm^−1. Decylubiquinol was stored at −80° C. and used within two weeks.
The protocol for the preparation of parasite extract was adapted from Fisher et al. (Fisher et al. 2009)^22. Free parasites were prepared from infected erythrocytes pooled from five T75 flasks, by adding 5 volumes of 0.15% (w/v) saponin in phosphate-buffered saline (137 mM NaCl, 2.7 mM KCl, 1.76 mM K2HPO4, 8.0 mM Na2HPO4, 5.5 mM D-glucose, pH 7.4) for 5 min, followed by three washes by centrifugation in RPMI containing HEPES (25 mM), and a final resuspension in potassium phosphate buffer (50 mM K2HPO4, 50 mM KH2PO4, 2 mM EDTA, pH7.4) containing a protease inhibitor cocktail (Complete Mini; Roche). Parasite extract was then prepared by disruption with a sonicating probe for 5 s, followed by a 1 min rest period on ice to prevent the sample overheating. […] The protein concentration of the parasite extract was determined by Bradford protein assay (Bio-Rad).
Plasmodium falciparum bc1 complex cytochrome c reductase (Pfbc1) activity was measured by monitoring cytochrome c reduction at 550 versus 542 nm using a Cary 300 Bio UV-Visible Spectrophotometer (Varian, UK), using a protocol adapted from Fisher et al. (Fisher et al. 2009)^21-23. […]

Compound | effect on size and number of EGS cysts [1] | effect on tachyzoite replication ([2]; 5 and 10 μM, vs off target control) | IC50 ([2]; Toxoplasma gondii, RH-YFP, read-out: Tachy IC50) [nM] | Inhibition of cytochrome c reduction (% atovaquone response) [3] [% atovaquone response]
Vivoporter-PMOs: "Vivo-PMO (Vivo porter linked to morpholinos) to knock down cytochrome b"; sequence 5′ AGTGTTCTCGAAACCATGCTAACAC 3′ (SEQ ID NO: 5) (all phosphorodiamidate morpholino (PMO); Vivo-Porter delivery moiety attached to morpholino, further chemistry not fully specified; listed as Homo sapiens) [reference compound] | small effect | modest effect |  | 
O=c1c2c([nH]c(CO)c1-c1ccc(Oc3ccc(OC(F)(F)F)cc3)cc1)CCCC2 [JAG099, 3(4-(4-Trifluoromethoxyphenoxy)phenyl)-2-(methylhydroxy)-5,6,7,8-tetrahydroquinolin-4(1H)-one] |  |  | 320 | 81.3 ± 6.0
